Where a name gives a salt, the structure may show the parent alone.

Data set [1] is described as follows: Evaluation of a conversion rate to 2-acetylnaphtho[2,3-b]furan-4,9-dione in pH 7.4 phosphate buffer solution. Type of data set: physicochemical. The note with it: Phosphate buffer solution (pH 7.4), 1 umol/L, 37° C., incubation time 120 min. Put shortly:
(§1)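 Compounds at 1 umol/L were incubated at 37° C in human plasma, CD1 mouse plasma or pH 7.4 phosphate buffer, sampled up to 120 minutes, acid/acetonitrile-deproteinised and analysed by LC-MS (ESI positive). Conversion (%) derived from the peak area ratio of the active form to phenytoin internal standard.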

Data set [2] is described as follows: Pharmacokinetics test, intravenous administration. The following applies: intravenously administered to mice.
Protocol: For water-soluble prodrugs described in the EXAMPLES, the concentration of 2-acetylnaphtho[2,3-b]furan-4,9-dione (Activated form 1) in plasma was measured. Animal species, an administration method, a method of making standard solutions, and a method of measuring the concentration in plasma are as described below.
Animal: Seven-week-aged male CD1 (ICR) mice were used as an experimental animal.
Administration method: A test substance was weighed, and then dissolved in 50 mmol/L glycine buffered saline (pH 2.0) to produce an administration solution. The body weight of a mouse was measured, and the prepared administration solution was intravenously administered.
Blood collecting method: Heparin was added to a blood-collecting vessel, and blood was collected from a mouse. To the obtained blood, 46% of Citric acid was added in 1% volume. It was then centrifuged to obtain plasma. To the collected plasma, 1 mol/L HCl was added in 10% volume to produce a plasma sample. A sample obtained by adding 10% volume of 1 mol/L HCl to blank plasma was used as a blank sample.
Making of a standard solution: One mg of a test sample was weighed, and dissolved in 10 mL of acetonitrile using a measuring flask to make a standard solution of 100 ug/mL.
Measurement of the concentration in plasma: One hundred ug/mL of the standard solution was diluted in 50% acetonitrile solution to make calibration curve samples of target concentrations. Twenty uL of a blank sample was added to 18 uL of the calibration curve sample to make a plasma calibration curve sample. Eighteen uL of 50% acetonitrile solution was added to 20 uL of the administered plasma sample to make a sample for plasma analysis. One hundred uL of acetonitrile (containing 1% volume of 10 mol/L HCl) containing an internal standard was added to the plasma calibration curve sample and the sample for plasma analysis, respectively. It should be noted that phenytoin was used as the internal standard and its concentration was prepared in 100 nmol/L. 10 uL of each sample was analyzed with LC-MS. A calibration curve was made from a value (peak ratio) of the peak area of a test substance in MS divided by the peak area of the internal standard, and the concentrations of plasma calibration curve samples. The concentration in a sample was calculated from the peak ratio of each sample and the calibration curve.
The format of data set [3] is in vivo, CD1 (ICR) mice. The following applies: orally administered to mice. An excerpt: It was then centrifuged to obtain plasma.
A short description of data set [4]: Solubility test. The note with it: pH 2, aqueous buffer, thermodynamic from solid.
Protocol: A water-soluble prodrug was added into 50 mmol/L glycine buffer solution (pH 2.0). After shaking at room temperature for 24 hours, the mixture was filtered through a membrane filter, and then the filtrate was measured with HPLC.
The measurement condition of HPLC is as described below. HPLC condition column: Acquity UPLC BEH C18, 1.7 um, 50×2.1 mm
A short description of data set [5]: Evaluation of a conversion rate to 2-acetylnaphtho[2,3-b]furan-4,9-dione in CD1 mouse plasma. Type of data set: in vitro ADME. The note with it: CD1, mouse, 120 min, 1 umol/L. Put shortly:
as §1

Data set [6] is described as follows: Evaluation of a conversion rate to 2-acetylnaphtho[2,3-b]furan-4,9-dione in human plasma. Type of data set: in vitro ADME. The following applies: human, 120 min, 1 umol/L. Put shortly: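 Compounds at 1 umol/L incubated at 37° C in human plasma, CD1 mouse plasma or pH 7.4 phosphate buffer, sampled up to 120 minutes. After acidified acetonitrile protein removal, parent loss and conversion to 2-acetylnaphtho[2,3-b]furan-4,9-dione measured by LC-MS (ESI positive).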

Data set [7] is described as follows: Solution stability test. Type of data set: physicochemical. The note with it: for % Residual ratio: 25 umol/L. As to the method: For Example 6, Example 11, and Example 22, the stability in each pH was measured. Test compounds at a concentration of 25 umol/L in respective buffer solutions prepared at pH 2.0, 3.0, 5.0, 7.4, and 9.0 were allowed to stand at 25° C. After 0, 3, 6, 9, 12, and 24 hours, they were measured with HPLC.
The buffer solutions used at respective pHs are as described below. pH 2.0: 50 mmol/L glycine buffer solution pH 3.0: 50 mmol/L citrate buffer solution pH 5.0: 50 mmol/L citrate buffer solution pH 7.4: 50 mmol/L phosphate buffer solution pH 9.0: 50 mmol/L glycine buffer solution
The measurement condition of HPLC is as described below.
Column temperature: 40° C.
Mobile phase: A: 0.1% trifluoroacetic acid-containing water

With `CC(=O)c1cc2c(OC(=O)NCCNCC(=O)O)c3ccccc3c(OC(=O)NCCNCC(=O)O)c2o1` [Example 4, 2,2′-((((((2-Acetylnaphtho[2,3-b]furan-4,9-diyl)bis(oxy))bis(carbonyl))bis(azanediyl))bis(ethane-2,1-diyl))bis(azanediyl))diacetic acid dihydrochloride], the “% Measurement value (conversion rate to 2-acetylnaphtho[2,3-b]furan-4,9-dione)” value (“% Measurement value” for short) in data set [1] (dihydrochloride) came out at 53%. For the same compound, the “production of 2-acetylnaphtho[2,3-b]furan-4,9-dione (Activated form 1) (in words)” value (from here on “production”) in data set [2] is “rapidly produced”. The “concentration of 2-acetylnaphtho[2,3-b]furan-4,9-dione (Activated form 1) observed (in words)” value in data set [3] was “high concentration”. Besides, the solubility at 24 hours in data set [4] (Solubility in pH 2.0 buffer solution, 50 mmol/L glycine buffer solution (pH 2.0), room temperature, 24 hours shaking) was over 5000 µg/mL.

For the compound `CC(=O)c1cc2c(OC(=O)NCCNCCC(=O)O)c3ccccc3c(OC(=O)NCCNCCC(=O)O)c2o1` [Example 5, 3,3′-((((((2-Acetylnaphtho[2,3-b]furan-4,9-diyl)bis(oxy))bis(carbonyl))bis-(azanediyl))bis(ethane-2,1-diyl))bis(azanediyl))dipropionic acid dihydrochloride], the “% Measurement value” value in data set [1] (dihydrochloride) is 70%. Besides, the “production” value in data set [2] was “rapidly produced”. Further, the “concentration of 2-acetylnaphtho[2,3-b]furan-4,9-dione (Activated form 1) observed (in words)” value in data set [3] is on record as “high concentration”.

Turning to `CC(=O)c1cc2c(OC(=O)OCCC[C@H](N)C(=O)O)c3ccccc3c(OC(=O)OCCC[C@H](N)C(=O)O)c2o1` [Example 22], the “% Measurement value” value in data set [1] was 22%; in data set [5], 56%; in data set [6], 37%. For the same compound, the solubility at 24 hours in data set [4] (glycine buffer solution) was over 5000 µg/mL. For the same compound, the “stability in solution (in words)” value in data set [7] (pH 2.0, 25° C.) was “sufficient stability”; in data set [7] (pH 3.0, 25° C.), “sufficient stability”. The “% Residual ratio” value in data set [7] (pH 2.0, 25° C., 0 hr) was determined as 100%; in data set [7] (pH 2.0, 25° C., 3 hr) it was 97.0%; in data set [7] (pH 2.0, 25° C., 6 hr), 96.3%; in data set [7] (pH 2.0, 25° C., 9 hr) it was 97.8%; in data set [7] (pH 2.0, 25° C., 12 hr), 97.1%; in data set [7] (pH 2.0, 25° C., 24 hr), 91.8%. In addition, the “% Residual ratio” value in data set [7] (pH 3.0, 25° C., 0 hr) was 100%; in data set [7] (pH 3.0, 25° C., 3 hr) it was 98.6%; in data set [7] (pH 3.0, 25° C., 6 hr), 97.8%; in data set [7] (pH 3.0, 25° C., 9 hr), 96.9%; in data set [7] (pH 3.0, 25° C., 12 hr), 96.0%; in data set [7] (pH 3.0, 25° C., 24 hr), 92.6%. Further, the “% Residual ratio” value in data set [7] (pH 5.0, 25° C., 0 hr) was 100%; in data set [7] (pH 5.0, 25° C., 3 hr) it was 81.2%; in data set [7] (pH 5.0, 25° C., 6 hr), 69.4%; in data set [7] (pH 5.0, 25° C., 9 hr) it was 58.8%; in data set [7] (pH 5.0, 25° C., 12 hr) it was 49.7%; in data set [7] (pH 5.0, 25° C., 24 hr), 24.5%. In addition, the “% Residual ratio” value is 100% in data set [7] (pH 7.4, 25° C., 0 hr); 0% in data set [7] (pH 7.4, 25° C., 3 hr); 0% in data set [7] (pH 7.4, 25° C., 6 hr); 0% in data set [7] (pH 7.4, 25° C., 9 hr); 0% in data set [7] (pH 7.4, 25° C., 12 hr); 0% in data set [7] (pH 7.4, 25° C., 24 hr). Further, the “% Residual ratio” value in data set [7] (pH 9.0, 25° C., 0 hr) stood at 100%; in data set [7] (pH 9.0, 25° C., 3 hr) it was 0%; in data set [7] (pH 9.0, 25° C., 6 hr), 0%; in data set [7] (pH 9.0, 25° C., 9 hr) it was 0%; in data set [7] (pH 9.0, 25° C., 12 hr), 0%; in data set [7] (pH 9.0, 25° C., 24 hr) it was 0%.

As for `CC(=O)c1cc2c(OC(=O)OCCCCNCC(=O)O)c3ccccc3c(OC(=O)OCCCCNCC(=O)O)c2o1` [Example 23, 2,2′-((((((2-Acetylnaphtho[2,3-b]furan-4,9-diyl)bis(oxy)bis(carbonyl))bis(oxy))bis(butane-4,1-diyl))bis(azanediyl)diacetic acid dihydrochloride], in data set [2], the “production” value is “rapidly produced”. The same compound displayed a solubility at 24 hours in data set [4] (glycine buffer solution) of over 5000 µg/mL.

In general, solubility refers to the concentration that dissolves in the medium under given conditions.

Values taken from patent US10800752B2, “Substituted naphtho[2,3-b]furans as water-soluble prodrugs for preventing and/or treating cancer” (BOSTON BIOMEDICAL, INC., priority 2015, dated 2020).
